Where a name gives a salt, the structure may show the parent alone.
Test system: MTT (mouse pheochromocytoma)
Assay: IC50 of cell viability (ATP content)
Details: (24 or 48 h)
Procedure, shortened: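 Each well of a white 1536-well plate received 5 µl of MTT mouse pheochromocytoma cells at 200,000 cells/ml in DMEM containing 5% FBS and 1% horse serum. After overnight culture at 37°C, 5% CO2, cells were exposed for 24 or 48 hrs to 23 nl of library compound in DMSO, pinned at 8 final concentrations from 0.5 nM to 46 µM. CellTiter-Glo luminescence was read after 15 minutes, and IC50 was obtained from a four-parameter logistic fit of signals normalised to positive-control and DMSO wells.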

## COc1ccc2cc1Oc1cc3c(cc1OC)CC[N+](C)(C)C3Cc1ccc(cc1)Oc1c(OC)c(OC)cc3c1C(C2)[N+](C)(C)CC3 (stereo unspecified) [METOCURINE IODIDE]
  IC50 of cell viability: > 46 µM

## NCCc1ccc(O)c(O)c1 [DOPAMINE]
  IC50 of cell viability: > 46 µM

## CC(=O)SC[C@@H](Cc1ccccc1)C(=O)NCC(=O)OCc1ccccc1 [Racecadotril]
  IC50 of cell viability: > 46 µM

## c1ccc(C2(N3CCCC3)CCCCC2)cc1 [Rolicyclidine]
  IC50 of cell viability: > 46 µM

## c1ccc(C(OC2CCCN(CCc3ccc4c(c3)OCO4)C2)c2ccccc2)cc1 (stereo unspecified) [Zamifenacin fumarate]
  IC50 of cell viability: > 46 µM

## CC(=O)Nc1c(I)c(NC(C)=O)c(I)c(C(=O)O)c1I [Diatrizoic acid dihydrate]
  IC50 of cell viability: > 46 µM

## CCON=C(CC)C/1=C(O)/CC(CC1=O)C2=C(C)C=C(C)C=C2C (stereo unspecified) [Tralkoxydim]
  IC50 of cell viability: > 46 µM

## CN(C)[C@H]\1[C@@H]2[C@@H](O)[C@@H]\3C(=C)C4=C(C(=CC=C4)O)C(=O)C3=C(\O)[C@@]2(O)C(=O)\C(=C1O)C(N)=O [Methacycline hydrochloride]
  IC50 of cell viability: > 46 µM

## CCC1(CC)C(=O)N\C=C/C1=O [PYRITHYLDIONE]
  IC50 of cell viability: > 46 µM

## N=C(N)NC(=O)Cc1c(Cl)cccc1Cl [GUANFACINE]
  IC50 of cell viability: > 46 µM

## Br.CC(N)Cc1ccc(O)cc1 (stereo unspecified) [HYDROXYAMPHETAMINE HYDROBROMIDE]
  IC50 of cell viability: > 46 µM

## C=C1[C@@H]2CC[C@H](C2)C1(C)C [CAMPHENE]
  IC50 of cell viability: > 46 µM

## CCOC(=S)SSC(=S)OCC [Dixanthogen]
  IC50 of cell viability: > 46 µM

## O=c1c2ccccc2[se]n1-c1ccccc1 [Ebselen]
  IC50 of cell viability: > 46 µM

## CCc1cccc(N(C)C(=N)Nc2cccc3ccccc23)c1.Cl [CNS-1102]
  IC50 of cell viability: > 46 µM

## CC(C)(C)NCC(O)c1cc(Cl)c(N)c(C(F)(F)F)c1 (stereo unspecified) [MABUTEROL HYDROCHLORIDE]
  IC50 of cell viability: > 46 µM

## O=C(NCCc1c[nH]c2ccccc12)c1cccnc1 [NICOTREDOLUM]
  IC50 of cell viability: > 46 µM

## COc1cc2nc(N(C)CCCNC(=O)[C@H]3CCCO3)nc(N)c2cc1OC [Alfuzosin hydrochloride]
  IC50 of cell viability: > 46 µM

## CN1CCC(=C2c3ccccc3CC(=O)c3sccc32)CC1 [KETOTIFEN]
  IC50 of cell viability: > 46 µM

## O=C(O)CCn1c2c(c3ccccc31)C[C@H](N[S+](=O)([O-])c1ccc(F)cc1)CC2 [RAMATROBAN]
  IC50 of cell viability: > 46 µM

## O=C(O)Cc1cn(-c2ccccc2)nc1-c1ccc(Cl)cc1 [Lonazolac]
  IC50 of cell viability: > 46 µM

## CCCC(=O)Nc1ccc(OC[C@@H](O)CNC(C)C)c(C(C)=O)c1 [Acebutolol hydrochloride]
  IC50 of cell viability: > 46 µM

## Cc1nc2c([nH]1)c(=O)n(C)c(=O)n2Cc1ccco1 [FURAFYLLINE]
  IC50 of cell viability: > 46 µM

## O=C(OCCOCCO)c1ccccc1Nc1cccc(C(F)(F)F)c1 [Etofenamate]
  IC50 of cell viability: > 46 µM

## Cc1ncsc1CCCl [CHLORMETHIAZOLE]
  IC50 of cell viability: > 46 µM

## CC12CCC(C[N+](C)(CCC[N+](C)(C)C)C1)C2(C)C (stereo unspecified) [TRIMETHIDINII METHOSULFAS]
  IC50 of cell viability: > 46 µM

## OCc1ccccn1 [Piconol]
  IC50 of cell viability: > 46 µM

## O=C1Oc2ccccc2C(=O)C1C(CC(O)c1ccc(-c2ccc(Br)cc2)cc1)c1ccccc1 (stereo unspecified) [BOLDO]
  IC50 of cell viability: > 46 µM

## COc1cc(C[C@H](C)N)c(OC)cc1Br [(+)-4-Bromo-2,5-dimethoxyamphetamine]
  IC50 of cell viability: > 46 µM

## CC(C)C[C@H](NC(=O)[C@@H](Cc1c[nH]c2ccccc12)NC(=O)[C@@H](Cc1ccc(O)cc1)NC(=O)[C@@H](CO)NC(=O)[C@@H](Cc1c[nH]c2ccccc12)NC(=O)C(Cc1c[nH]cn1)NC(=O)C1CCC(=O)N1)C(=O)N[C@@H](CCCNC(=N)N)C(=O)N1CCC[C@@H]1C(=O)NCC(N)=O (stereo partly specified) [TRIPTORELIN PAMOATE]
  IC50 of cell viability: > 46 µM

## CCN(CC)CCNC(=O)COc1ccc(OC)cc1.Cl [MEFEXAMIDE]
  IC50 of cell viability: > 46 µM

## CCN1CCC[C@H]1CNC(=O)c1c(O)c(Cl)cc(Cl)c1OC [S(-)-RACLOPRIDE]
  IC50 of cell viability: > 46 µM

## COc1cc2c(cc1OC)[C@@H](c1ccccc1)CN(C)CC2.O=C(O)/C=C\C(=O)O
  IC50 of cell viability: > 46 µM

## C=C1Nc2ccccc2C(=O)N1c1ccccc1C [METHAQUALONE]
  IC50 of cell viability: > 46 µM

## C[C@@H]1C[C@H]2C3C[C@H](F)\C4=C\C(=O)\C=C/C4(C)C3[C@@H](O)CC2(C)[C@@]1(O)C(=O)COC(C)=O (stereo partly specified) [Paramethasone acetate]
  IC50 of cell viability: > 46 µM

## CC1CC[C@@]2(NC1)OC1CC3C4CC[C@@H]5CC(O)CC[C@@]5(C)C4CC[C@]3(C)C1C2C.Cl (stereo partly specified) [TOMATIDINE HYDROCHLORIDE]
  IC50 of cell viability: > 46 µM

## Cc1cccc(C(C)c2cnc[nH]2)c1C (stereo unspecified) [Medetomidine hydrochloride]
  IC50 of cell viability: > 46 µM

## CCCCCc1cc(O)c2c(c1)OC(C)(C)c1ccc(C)cc1-2 [Cannabinol]
  IC50 of cell viability: > 46 µM

## C=CC1=C(C(=O)O)N2C(=O)[C@@H](NC(=O)C(N=O)c3csc(N)n3)[C@H]2SC1 (stereo partly specified) [Cefdinir]
  IC50 of cell viability: > 46 µM

## O.[Na+].CCOC1=CC=C2C=CC=CC2=C1C(=O)N[C@H]3[C@@H]4SC(C)(C)[C@@H]([N@@]4C3=O)C([O-])=O [Nafcillin sodium salt monohydrate]
  IC50 of cell viability: > 46 µM

## N[S+](=O)([O-])c1cc([C@]2(O)NC(=O)c3ccccc32)ccc1Cl [Chlorthalidone]
  IC50 of cell viability: > 46 µM

## COC(=O)C1C(OC(=O)c2ccccc2)CC2CCC1N2C (stereo unspecified) [Allococaine]
  IC50 of cell viability: > 46 µM

## CCOC(=O)[C@H](CCc1ccccc1)N[C@@H](C)C(=O)N(CC(=O)O)C1Cc2ccccc2C1 [DELAPRIL HYDROCHLORIDE]
  IC50 of cell viability: > 46 µM

## Cc1c(I)c(=O)n(-c2ccccc2)n1C [IODOANTIPYRINE]
  IC50 of cell viability: > 46 µM

## CC(C)NCC(O)c1ccccc1Cl (stereo unspecified) [CLORPRENALINE HYDROCHLORIDE]
  IC50 of cell viability: > 46 µM

## CC(C(=O)O)c1ccc(N2Cc3ccccc3C2=O)cc1 (stereo unspecified) [INDOPROFEN]
  IC50 of cell viability: > 46 µM

## CCCCCC(O)/C=C/C=O (racemic) [(±)-4-Hydroxynon-2-enal]
  IC50 of cell viability: > 46 µM

## CC1=C(NNC(=O)C1)C2=CC=C(N\N=C(\C#N)C#N)C=C2 [SIMENDANUM]
  IC50 of cell viability: > 46 µM

## COc1cc(CNC(=O)CCCC/C=C/C(C)C)ccc1O [Capsaicin]
  IC50 of cell viability: > 46 µM

## C=C1CC[C@H](O)C/C1=C/C=C1\CCC[C@]2(C)[C@@H]([C@H](C)CC[C@@H](O)C(C)(C)O)CC[C@@H]12 [SECALCIFEROL]
  IC50 of cell viability: > 46 µM

## C=CS(=O)(=O)[O-] [Vinylsulfonic acid sodium salt solution]
  IC50 of cell viability: > 46 µM

## COc1ccc2c(c1)C(=O)N(CCc1ccc([S+](=O)([O-])NC(=O)NC3CCCCC3)cc1)C(=O)C2(C)C [Gliquidone]
  IC50 of cell viability: > 46 µM

## Nc1ccc(C(=O)[O-])c(O)c1 [Pasiniazid]
  IC50 of cell viability: > 46 µM

## NCCCCCC(=O)O [Aminocaproic acid]
  IC50 of cell viability: > 46 µM

## NNc1nnc(NN)c2ccccc12 [DIHYDRALAZINUM]
  IC50 of cell viability: > 46 µM

## CCOc1ccccc1OC(c1ccccc1)C1CNCCO1 (stereo unspecified) [Reboxetine mesylate]
  IC50 of cell viability: > 46 µM

## CN1\C(=C(\O)C2=C(C=CC=C2)[S+]1([O-])=O)C(=O)NC3=CC=CC=N3 [Piroxicam]
  IC50 of cell viability: > 46 µM

## CN1CC[C@@]23C4OC5=C(OC(C)=O)C=CC(=C25)C[C@@H]1C3\C=C/C4OC(C)=O (stereo partly specified) [3,6-Diacetylmorphine]
  IC50 of cell viability: > 46 µM

## Cn1cnc([N+](=O)[O-])c1Sc1ncnc2nc[nH]c12 [Azathioprine]
  IC50 of cell viability: > 46 µM

## NC1CCN(c2nc3c(cc2F)c(=O)c(C(=O)O)cn3-c2ccc(F)cc2F)C1 (stereo unspecified) [TOSUFLOXACIN TOSILATE]
  IC50 of cell viability: > 46 µM

## [Na+].CO[C@@]1(NC(=O)CSCC#N)[C@@H]2SC\C(=C(/N2C1=O)C([O-])=O)CSC3=NN=N[N]3C [Cefmetazole sodium salt]
  IC50 of cell viability: > 46 µM

## N[C@@H](Cc1cc(I)c(Oc2ccc(O)c(I)c2)c(I)c1)C(=O)O [Detrothyronin]
  IC50 of cell viability: > 46 µM

## Cc1ccc([S+](=O)([O-])NC(=O)NC2CCCCC2)cc1 [Glycyclamide]
  IC50 of cell viability: > 46 µM

## C=C[C@H]1CN2CCC1C[C@H]2[C@H](O)c1ccnc2ccc(OC)cc12 (stereo partly specified) [QUININE ASCORBATE]
  IC50 of cell viability: > 46 µM

## [O-]Cl [Sodium hypochlorite]
  IC50 of cell viability: > 46 µM

## COC(=O)c1ccccc1C(=O)OC [Dimethyl phthalate]
  IC50 of cell viability: > 46 µM

Source: the supplement of paper PMC3974653
